According to patent US20070213403A1, “TAMOXIFEN RESPONSE IN PRE-AND POST[…] CANCER PATIENTS” (priority 2004, published 2007):

Experiments:
[1] = system: hormone receptor positive breast cancer; settings: adjuvant tamoxifen for five years; cited from earlier work
[2] = system: premenopausal patients with stage II invasive breast cancer; test: Randomised trial of two years of adjuvant tamoxifen vs control in premenopausal patients; type: in vivo, human
From the text: Premenopausal patients or patients under 50 years with stage II (pT2 N0 M0, pT1 N1 M0 and pT2, N1 M0) invasive breast cancer were enrolled in a clinical trial between 1986 -1991 and randomized to control (n=288) or two years of tamoxifen (n=276). All patients were radically operated by modified radical mastectomy or breast conserving surgery with axillary lymph node dissection (level one and two). After breast conserving surgery, radiotherapy (50 Gy) was given to the breast and in patients with axillary lymph node metastases locoregional radiotherapy was delivered. Patients were included irrespective of hormone receptor status. Randomization was performed by the Regional Oncologic Centre and oral informed consent registered for all patients. The study was approved by the ethical committee at Lund and Linkoping Universities.
The patients were followed until 5 years with annual mammogram and physical examination and then within the national program by screening mammogram every 18th month.The median duration of follow-up for patients without breast cancer event was 13.9 years (95% Cl: 13.6-14.3). The median follow-up time was the same in the two treatment arms. • 2. Postmenopausal Patients
(§1) 3-4 um sections of the paraffin embedded tissue arrays were dried, deparaffinized, rehydrated and microwave treated for 5+5 min in a citrate buffer (pH 6.0) before being processed in an automatic immunohistochemistry staining machine according to standard procedures (TechMate500, Dako, Denmark) using a polyclonal VEGF (A-20) antibody diluted 1:400 recognizing VEGF 165, 189 and 121 (Santa Cruz, Calif., USA) and a monoclonal VEGFR2 antibody recognizing VEGFR2/KDR diluted 1:1000 (Santa Cruz, Calif., USA). Normal human kidneys were used as positive controls for VEGF-A and for VEGFR2, human aortic endothelium served as positive controls. VEGF-A was previously validated using an ELISA-based method (LR). The cytoplasmatic staining intensity was evaluated semi-quantitatively using a classification from 0-3, representing lack of staining (0), low staining intensity (1), intermediate staining intensity (2) and high staining intensity (3). Only invasive tumor cells were evaluated. In survival analyses, high staining intensity (grade 3) was compared with the other grades (0, 1, 2) for both VEGF-A and VEGFR2 in premenopausal patients. In postmenopausal patients lack of staining was compared with staining of any intensity.
ER and PR were determined by immunohistochemistry in a tissue microarray. For this purpose, the Ventana Benchmark system (Ventana Medical Systems Inc., AZ, USA) with prediluted antibodies (Anti-ER Clone 6F11 and Anti-PgR Clone 16) was used. In line with the clinically established cut-off used for hormone receptor assessment, tumors with more than 10% positively staining nuclei were considered positive. In addition, the fractions of positive nuclei were quantified. […]
(§2) For survival analyses all calculations were done according to the intention to treat rule. Recurrence-free survival (RFS) considered distant, local and regional metastasis as primary event as well as breast cancer death, whereas contralateral breast cancer was not included. The Kaplan-Meier method was used to estimate recurrence-free and breast cancer survival and the log-rank test to compare survival in different strata. Cox proportional hazards model was used for estimation of univariate hazard ratios (HRs) and multivariate analysis.

[3] = system: postmenopausal patients with stage II invasive breast cancer; test: Randomised trial of two years of tamoxifen (40 mg/day) vs control in postmenopausal patients; type: in vivo, human
From the text: The patients included were enrolled in a multi-center clinical trial at Umea University Hospital, Sweden, during 1980-1987 (Trial II) included in the Oxford meta-analysis. The inclusion criteria were postmenopausal patients (>55 years) with stage II (pT1, pN1, pM0, pT2, pN0, pM0, pT2, […], pM0) invasive breast cancer. For patients older than 70 years, stage II and stage III breast cancer patients were included. Patients were operated with modified radical mastecomy. The hormone receptor level was not determined at time of randomization. Patients were randomized to control or tamoxifen treatment (40 mg/day) for two years by the Regional Oncologic Center and oral informed consent was registered on admission to the Oncological Clinic. The study was approved by the Ethical Committee at the Umea university 1980 as well as 2002 (modification regarding molecular markers used in tissue micro array). The median age was 66.5 years (55-75 years) at inclusion. The median follow-up time was 18 years (range 15-22 years) for surviving patients.
as §1
ER and PR were determined by immunohistochemistry in a tissue microarray. For this purpose, the Ventana Benchmark system (Ventana Medical Systems Inc., AZ, USA) with prediluted antibodies (Anti-ER Clone 6F11 and Anti-PgR Clone 16) was used. In line with the clinically established cut-off used for hormone receptor assessment, tumors with more than 10% positively staining nuclei were considered positive. In addition, the fractions of positive nuclei were quantified.
as §2

[4] = Cox model with VEGFR2 status and interaction-variable, ER positive patients
[5] = Cox model, ER positive patients
[6] = Cox multivariate model with VEGF-A status and interaction-variable, ER positive patients
[7] = Cox multivariate model, ER positive patients
[8] = ER positive patients, univariate
[9] = ER positive, HER2 low tumors, univariate

## CC/C(=C(\c1ccccc1)c1ccc(OCCN(C)C)cc1)c1ccccc1 [tamoxifen]
[1]
  reduction of death: 28%
  reduction of recurrence: 50%
[2]; 324 ER positive patients, two years of tamoxifen vs control
  absolute risk reduction (recurrence): 15%
[2]; [4]
  HR, OS, Randomization Tam v control: 0.6
  HR, RFS, Randomization Tam v control: 0.6
[2]; [5]
  HR, OS, interaction-variable tamoxifen treatment x VEGFR2 status: 5.2
  HR, RFS, interaction-variable tamoxifen treatment x VEGFR2 status: 2.2
[2]; [6]
  HR, OS, Randomization Tam v control: 1.1
  HR, RFS, Randomization Tam v control: 0.5
[2]; [7]
  HR, OS, interaction-variable tamoxifen treatment x VEGF-A status: 0.5
  HR, RFS, interaction-variable tamoxifen treatment x VEGF-A status: 1.5
[2]; ER negative disease
  HR, OS (tamoxifen vs control): 0.9
  HR, RFS (tamoxifen vs control): 0.9
[2]; ER positive patients, tamoxifen treated group
  recurrence rate: 36%
[2]; [8]
  HR, OS (tamoxifen vs control): 0.8
  HR, RFS (tamoxifen vs control): 0.6
[2]; [9]
  HR, OS (tamoxifen vs control): 0.8
  HR, RFS (tamoxifen vs control): 0.6
[2]; ER positive, HER 2 overexpressing tumor, univariate
  HR, OS (tamoxifen vs control): 0.9
[2]; ER positive, HER2 overexpression, univariate
  HR, RFS (tamoxifen vs control): 0.7
[2]; ER positive, VEGF grade 3 tumors, univariate
  HR, RFS (tamoxifen vs control): 0.8
[2]; ER positive, VEGF-A grade 0-2 tumors, univariate
  HR, RFS (tamoxifen vs control): 0.6
[2]; ER positive, VEGFA grade 0-2 tumors, univariate
  HR, OS (tamoxifen vs control): 0.8
[2]; ER positive, VEGFA grade 3 tumors, univariate
  HR, OS (tamoxifen vs control): 0.8
[2]; ER positive, VEGFR2 3
  HR, OS (tamoxifen vs control): 3.4
[2]; ER positive, VEGFR2 grade 0, 1 or 2 staining intensity
  HR, RFS (tamoxifen vs control): 0.6
[2]; ER positive, VEGFR2 grade 0-2
  HR, OS (tamoxifen vs control): 0.7
[2]; ER positive, intense expression of VEGFR2 (grade 3)
  HR, RFS (tamoxifen vs control): 1.4
[3]; Cox model, 10 years, ER positive >90% stained nuclei
  HR of interaction-variable VEGFR2 status x tamoxifen treatment, OS: 0.2
[3]; ER positive >90% stained nuclei, VEGF-A negative tumors
  HR, OS at 10 years (tamoxifen vs control): 0.3
[3]; ER positive >90% stained nuclei, VEGF-A positive tumors
  HR, OS at 10 years (tamoxifen vs control): 0.8
[3]; ER positive >90% stained nuclei, VEGFR2 negative tumors
  HR, OS at 10 years (tamoxifen vs control): 0.2
[3]; ER positive >90% stained nuclei, VEGFR2 positive tumors
  HR, OS at 10 years (tamoxifen vs control): 0.9
[3]; all patients irrespective of hormone receptor content
  effect on overall survival of tamoxifen treatment: non-significant
[3]; patients with >90% ER positive cells, 10 years
  tamoxifen response (overall survival): notable at 10-years, however not strictly significant
